The values below come from paper PMC4957904, “A novel validated assay to support the discovery of new anti-malarial gametocytocidal agents” (Malaria Journal, 2016).

Series [1] has as its system late-stage (stage V) Plasmodium falciparum gametocytes. Kind of series: Cidal vs static activity assay by qPCR of late-stage gametocyte-specific mRNA (Pf77, ROM3, Pfg377). The format is cell-based. The note with it: for cidal vs static effect against late-stage gametocytes (mRNA profile T∞ vs T48) / increase in Ct values, constant drug pressure (T∞) / decrease in mRNA levels (fold change), constant drug pressure (T∞) / increase in Ct values after drug removal (T48): Pf77 coding gene; for cidal vs static effect against late-stage gametocytes (mRNA profile T∞ vs T48): 144 h, concentrations of Table 1; for increase in Ct values, constant drug pressure (T∞) / decrease in mRNA levels (fold change), constant drug pressure (T∞): drug present for 144 h (T∞); for increase in Ct values, constant drug pressure (T∞): 20 × IC50 (EX 2 × IC50); for decrease in mRNA levels (fold change), constant drug pressure (T∞): from Ct increase; for reduction of mRNA levels after drug removal (T48): drug present only 48 h (T48), from Ct values; for increase in Ct values after drug removal (T48): drug present 48 h, then 96 h without drug (T48). On the procedure: The in vitro cidal or static anti-malarial activity of a compound against the later stages of gametocyte development at day 15 was assessed by measuring mRNA levels in P.falciparum over 144 h following drug treatment (Fig. 1). Drug activity assays were performed once in two independent cultures in T-75 flasks (Corning, NY, USA). Late-stage gametocytes were incubated with drug and 6 % haematocrit over 48 h. […] IC50 values were obtained from Lelievre et al.. To remove drug from the medium, parasite cultures were harvested and washed two times with 25 ml of RPMI. After drug removal, the parasites were cultured for a further 96 h with complete culture medium either without or with drug, at the same concentration as the initial incubation, to evaluate the reversibility of the compound effect. Medium was changed daily and two samples of 1000 µl of culture at 0, 48, 96, and 144 h were taken, centrifuged and immediately stored at −80 °C for further analysis. An untreated culture was used as a […].
Fig. 1 Scheme showing the cidal vs static in vitro activity assay against stage V Plasmodium falciparum gametocytes. Gametocytes were incubated for 48 h with 20 × IC50. After drug was washed out, the parasites were cultured for 96 h with complete culture medium with drug (A) or without drug (B) to evaluate the reversibility of compound effects. Two samples at t = 0, 48, 96, and 144 h were taken for RNA extraction, cDNA synthesis and qPCR amplification. Comparison of mRNA levels of treated P. falciparum cultures upon removal of the drug was used to assess the cidal vs static activity
For RNA extraction, RNeasy Plus mini kit (Qiagen, Hilden, Germany) was used according to the standard protocol supplied by the manufacturer. cDNA synthesis and SYBR green qPCR were performed in duplicate following the protocol already published by Bahamontes-Rosa et al.. Melting curve analysis was always performed at the end of each assay as a specificity control.
Threshold cycle (Ct) values from the measurement of the cDNA samples were obtained in duplicate using the 7000 and the 7500 fast system Software (Applied Biosystem) and further analysed using an excel data sheet (Microsoft Corporation). The average value was taken as the result and only duplicate Ct values within ±1 Ct difference were accepted. Ct values were used to quantify the relative amount of target PCR product present in each reaction; values are inversely proportional to the amount of template in the sample.
Gene expression during gametocytogenesis was represented with an adaptation of the method described by Livak and Schmittgen as (Ctgene−Ct18S rRNA)Ttime […](Ctgene−Ct18S rRNA)T0, considering the expression at time 0 (T0) as the basal expression and using the 18S rRNA gene as housekeeping gene. Absolute quantification (direct comparison of Ct values) was considered the most appropriate method for the drug activity assays.
Two different treatments were performed in parallel, one with constant drug pressure throughout the experiment (T∞), 144 h in total, and another in which the gametocyte cultures were exposed to the compound for only 48 h, the drug was washed out and then cultured for a further 96 h in fresh complete culture medium (T48) (see Fig. 1).
Background: Quantitative PCR measures a nucleic acid by following its amplification.

For series [2], the system named is 3D7A P. falciparum mature gametocytes. Details: method as in PMID 22514702. The note with it: ATP bioluminescence assay, read-out: P.f. gametocytes IC50; cited from earlier work.
In series [3] the test system is late-stage (stage V) Plasmodium falciparum gametocytes. As to the kind of experiment: Cidal vs static activity assay by qPCR of late-stage gametocyte-specific mRNA (Pf77, ROM3, Pfg377). The series is classed as cell-based. The note with it: Pf77 coding gene; 48 h drug treatment only; TCMDC-125114 at 100 × IC50; CQ at 2, 20 and 125 × asexual IC50.
For series [4] the following is noted: cytotoxicity, short-term resazurin-based reductase assay; cited from earlier work. For orientation: Alamar Blue is a resazurin reagent that responds to reducing activity.
Another series deals with oocysts. Details: method as in PMID 26317851. The note with it: SMFA ex vivo, assayed at 2.5 µM; cited from earlier work.

SMILES strings stand for the structures. “Also recorded” adds a separate entry of the source.

As to `CCN(CC)CCCC(C)Nc1ccnc2cc(Cl)ccc12` (centres unmarked) [Chloroquine, reference compound], in series [1], the “cidal vs static effect against late-stage gametocytes (mRNA profile T∞ vs T48)” value (“cidal vs static effect” for short) is on record as “did not affect mature gametocytes”. Further, the IC50 (usually the concentration at which inhibition is half-maximal) in series [2] was 23500 nM. Further, the “effect on Ct values at increasing concentrations, 48 h drug exposure (minimal gametocytocidal concentration)” value in series [3] is recorded as “no Ct increase”.

Take `C[C@H]1[C@@H](O)O[C@@H]2O[C@@]3(C)CC[C@H]4[C@H](C)CC[C@@H]1[C@@]24OO3` [Dihydroartemisinin, reference compound]: in series [1], the “cidal vs static effect” value is given as “static”; the “increase in Ct values, constant drug pressure (T∞)” value (“increase in Ct values … (T∞)” below) is “at least 5 Ct”; the “decrease in mRNA levels (fold change), constant drug pressure (T∞)” value (“decrease in mRNA levels (fold change)” for short) is no less than 100 fold; the “reduction of mRNA levels after drug removal (T48)” value (from here on “reduction of mRNA levels”) was “less than tenfold”. Besides, the IC50 in series [2] is 3560 nM. Moreover, the TOX50 in series [4] is on record as greater than 50 µM.

On to `CC[C@H](C)[C@H](NC(=O)[C@H]([C@@H](C)CC)N(C)C(C)=O)C(=O)N[C@H](C(=O)N[C@@H](CC(C)C)C(=O)[C@@]1(C)CO1)[C@@H](C)O` [Epoxomicin, reference compound], for which, in series [1], the “cidal vs static effect” value is recorded as “static”; the “increase in Ct values … (T∞)” value is “at least 5 Ct”; the “decrease in mRNA levels (fold change)” value is no less than 100 fold; the “reduction of mRNA levels” value was “less than tenfold”. The IC50 in series [2] was 0.5 nM. Also, in series [4], the TOX50 is 0.003 µM.

`CN(C)c1ccc2nc3ccc(=[N+](C)C)cc-3sc2c1` [Methylene blue, reference compound]: in series [1], the “cidal vs static effect” value is “cidal”. Besides, in series [2], the half-maximal inhibitory concentration (IC50) was 490 nM. The TOX50 in series [4] is recorded as 6.52 µM.

`CNC(=S)NN=C(C)c1ccccn1` [TCMDC-123475]: in series [1], the “cidal vs static effect” value is recorded as “prolonged reduction in mRNA levels only when the drug was continuously present”; the “increase in Ct values … (T∞)” value turned out to be 7 Ct; the “decrease in mRNA levels (fold change)” value is “more than 100 fold”. The IC50 in series [2] is 9.8 nM. For the same molecule, the TOX50 in series [4] is recorded as greater than 25 µM.

Turning to `Cc1[nH]c2ccccc2c1C(=O)C(C)Sc1n[nH]c(-c2ccccc2Br)n1` (centres unmarked) [TCMDC-125114], in series [1], the “cidal vs static effect” value is “prolonged reduction in mRNA levels only when the drug was continuously present”; the “increase in Ct values … (T∞)” value came out at 7 Ct; the “decrease in mRNA levels (fold change)” value is listed as “more than 100 fold”. Moreover, the IC50 in series [2] is 130 nM. Further, in series [3], the “effect on Ct values at increasing concentrations, 48 h drug exposure (minimal gametocytocidal concentration)” value is reported as “cidal activity”. For the same molecule, the “reduction in the number of oocysts” value with oocysts is given as 100%. Besides, the TOX50 in series [4] is greater than 50 µM.

Consider `COc1cccc(NC(=O)[C@H](C(C)C)n2c(=O)[nH]c3ccccc3c2=O)c1` [TCMDC-125133], for which, in series [1], the “cidal vs static effect” value is given as “prolonged reduction in mRNA levels only when the drug was continuously present”; the “increase in Ct values … (T∞)” value came out at 7 Ct; the “decrease in mRNA levels (fold change)” value is on record as “more than 100 fold”. Also, the IC50 in series [2] is 540 nM. Also, the “reduction in the number of oocysts” value in the series on oocysts is listed as 100%. The TOX50 in series [4] is reported as greater than 50 µM.

`CC(C)c1ccc(NC(=S)NN=Cc2ccccn2)cc1` [TCMDC-125520]: in series [1], the “cidal vs static effect” value was “static; also recorded: prolonged reduction in mRNA levels only when the drug was continuously present”; the “increase in Ct values after drug removal (T48)” value was no more than 2 Ct; the “increase in Ct values … (T∞)” value is recorded as roughly 5 Ct; the “decrease in mRNA levels (fold change)” value is reported as “ca. 100 fold”. Further, in series [1], the “reduction of mRNA levels” value is given as “less than tenfold”. In addition, the IC50 in series [2] is 9.8 nM. The TOX50 in series [4] was 12.80 µM.

As for `Br.Cc1ccnc(Nc2nc(-c3ccccn3)cs2)c1` [TCMDC-125769], in series [1], the “cidal vs static effect” value was “static; also recorded: prolonged reduction in mRNA levels only when the drug was continuously present”; the “increase in Ct values after drug removal (T48)” value is no more than 2 Ct; the “increase in Ct values … (T∞)” value is listed as roughly 5 Ct; the “decrease in mRNA levels (fold change)” value is recorded as “ca. 100 fold”. Besides, the “reduction of mRNA levels” value in series [1] is recorded as “less than tenfold”. Moreover, in series [2], the IC50 was 40 nM. For the same molecule, the TOX50 in series [4] is recorded as greater than 25 µM.

Consider `CN1CCOc2ccc(Nc3nnc(-c4cccc(-c5cccnc5)c4)o3)cc2C1` [TCMDC-134278], for which the IC50 in series [2] is greater than 5000 nM. Also, in series [4], the TOX50 is 19.95 µM.

In the case of `CCNCc1cccc(-c2ccc3ccnc(N)c3c2)c1` [TCMDC-136869], the IC50 in series [2] is 1660 nM. In addition, the TOX50 in series [4] is 12.59 µM.

On to `C=C(NC(=O)C(=C)NC(=O)c1csc(C2=N[C@@H]3c4csc(n4)[C@H]4NC(=O)c5csc(n5)[C@H]([C@](C)(O)[C@@H](C)O)NC(=O)[C@H]5CSC(=N5)/C(=C/C)NC(=O)[C@H]([C@@H](C)O)NC(=O)c5csc(n5)[C@]3(CC2)NC(=O)[C@H](C)NC(=O)C(=C)NC(=O)[C@H](C)NC(=O)[C@H]([C@@H](C)CC)N[C@@H]2C=Cc3c([C@H](C)O)cc(nc3[C@H]2O)C(=O)O[C@@H]4C)n1)C(N)=O` [Thiostrepton, reference compound], for which, in series [1], the “cidal vs static effect” value was “static”; the “increase in Ct values … (T∞)” value was “at least 5 Ct”; the “decrease in mRNA levels (fold change)” value was no less than 100 fold; the “reduction of mRNA levels” value is on record as “less than tenfold”. Besides, the IC50 in series [2] is 900 nM.
